# Laboratory results: patent US7166310B2, “Stable extract from Hypericum perforatum L., method for the production thereof and its use as a topical medicament” (Dr. Willmar Schwabe GmbH & Co., priority 2000, dated 2007)
# Where two headings read alike, the source gives them in different places.
# Legend:
# [1] = system: myelo-peroxidase (MPO), neutrophile granulocyte accumulation; experiment: Oleum Crotonis-ear-oedema model, myelo-peroxidase in ear homogenates; assay type: in vivo; conditions: 250 μg topically on the ear, mice, 6 hours
# Method: (§1) The anti-phlogistic effects of hypericum extract according to the invention, also those of isolated ingredients, were tested in the Oleum Crotonis-ear-oedema model on male NRMI mice. After inducing a narcosis by the intra-peritonal injection of 60 mg/kg sodium-pento-barbital, the test substances were applied to the right ear in 10 μl acetone, whereas the left ear was treated with 10 μl acetone alone, as a control. 30 mins later, a local inflammation was triggered at the left ear by applying 50 μg Oleum Crotonis in 10 μl acetone. After 6 hours, the animals were sacrificed and inhibition of the inflammation reaction was quantified by weighing a sample of tissue drawn from both ears, using the following formula: [1−(GT/GL]×100; in the case of GT or GL, this deals with the difference in weight between the right and left ears of animals that have been treated with the test substance (GT), or only with the solvent (GL).
# Inhibition of neutrophile granulocyte accumulations in inflamed tissue was obtained by determining myelo-peroxidase (MPO) in the ear homogenates. To this end, biopsy samples were recorded in 1 ml hexadecyl-trimethyl ammonium bromide (HTAB) buffers, homogenised with a glass homogeniser at 4° C. and then given ultrasound treatment for 10 seconds in a sonicator. After centrifuging at 4° C. with 3000 g for 10 mins, the supernatant was removed and retained for analysing at −70° C. Determining the MPO was performed in micro-titre dishes after adding H2O2 and the O-dianisidine-dihydrochloride indicator as a kinetic measure, over a period of 5 mins at 450 nm. Assessment was carried out against a standard curve with horseradish peroxidase, and was obtained as an mU enzyme activity per mg of tissue.
# (§2) The results of the investigations after applying 250 μg of the test substance or 1000 μg of the extract according to the invention to the left ear in each case are summarised in the following table.
# [2] = system: Oleum Crotonis-ear-oedema; experiment: Oleum Crotonis-ear-oedema model, ear weight; assay type: in vivo; conditions: 250 μg topically on the ear, mice, 6 hours
# Method: as §1, §2
# 5α reductase = biological target: T1, 5α reductase (Homo sapiens, UniProt P18405); experiment: Inhibition of 5α reductase in DU145 cells; assay type: cell-based
# T1 construct: carried out on cells of the human prostate-cancer cell-line DU145; endogenous in cells; host or cells: DU145 (human prostate cancer cell line)
# T1 sequence (P18405 1-259): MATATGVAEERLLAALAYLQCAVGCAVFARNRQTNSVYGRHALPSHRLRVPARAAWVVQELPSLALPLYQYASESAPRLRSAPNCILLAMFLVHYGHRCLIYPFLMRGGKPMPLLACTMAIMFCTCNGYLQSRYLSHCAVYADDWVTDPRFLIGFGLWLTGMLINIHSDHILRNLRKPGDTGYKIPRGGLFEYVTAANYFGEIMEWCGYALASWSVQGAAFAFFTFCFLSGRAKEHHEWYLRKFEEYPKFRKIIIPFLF
# [3] = system: human keratinocytes (HaCaT cells); experiment: Proliferation of human keratinocytes, 3H methyl-thymidine incorporation; assay type: cell-based; conditions: for inhibition at 10 µg/mL: Homo sapiens, HaCaT, read-out: Inhibition (proliferation of HaCaT cells)
# Method: The effects of the extracts according to the invention and various ingredients on the proliferation of human keratinocytes were obtained by using the HaCaT cell-line. The cells (10,000–15,000) were disseminated in 200 μl DMEM with 5% foetal calf serum in 96-well F-form micro-titre dishes and incubated at 37° C. at absence of test substances in an incubator. Cell proliferation was determined by measuring the incorporation of ^3H methyl-thymidine (0.5 μCi/well) over the last 6 hours in the culture.
# verocells = experiment: Cyto-toxicity on verocells, MTT test; assay type: cell-based, ape; conditions: 7 days
# Method: Various concentrations of the extract according to the invention and hypericin were incubated in the incubator for 7 days to assess the cyto-toxic effect of verocells. Determining of cyto-toxicity was performed using an MTT test following a published procedure (Cinatl J. jr; Cinatl, J; Rabenau, H, Gümel, H; Doerr, H. W; (1993); “In-vitro anti-human immuno-deficiency virus activity of 2′, 3 dideoxynucleotides and their effect on clonal growth of hæmopoietic cells from human bone-marrow”, Arzneimittel-Frsch./Drug Res. 43, 622–625).
# Assessment of the cyto-toxic concentration (TC50) and the virus-inhibiting concentration (IC50) was performed using linear regression. To calculate the therapeutic index, the formula TC50/IC50 was applied.
# [4] = system: Herpes simplex 1 strain of virus (HSV-1); experiment: HSV-1 "inhibition test" (virostatic action in verocells); assay type: cell-based; conditions: Human alphaherpesvirus 1; HSV-1 3000 TCID50/ml, 48–72 hours
# [5] = system: Herpes simplex 1 strain of virus (HSV-1); experiment: HSV-1 "deactivation test" (virus titre on verocells); assay type: cell-based; conditions: for virus titre: virus applied 1.5×10^7 TCID50
# Enterococcus durans = experiment: MIC, micro-dilution method; assay type: cell-based
# Method: (§3) Anti-microbial effects against various gram-positive bacteria were determined using the micro-dilution method. In the table below, we show the minimum inhibition concentration (MIC) and the minimum bactericide concentration (MBC) in each case.
# [6] = system: Staphylococcus saprophyticus; experiment: MIC, micro-dilution method; assay type: cell-based
# Method: as §3
# Enterococcus fæcium = experiment: MIC, micro-dilution method; assay type: cell-based
# Method: as §3
# Streptococcus pyogenes = experiment: MIC, micro-dilution method; assay type: cell-based
# Method: as §3
# Enterococcus fæcalis = experiment: MIC, micro-dilution method; assay type: cell-based
# Method: as §3
# Listeria monocytogenes = experiment: MIC, micro-dilution method; assay type: cell-based
# Method: as §3
# [7] = system: Staphylococcus aureus (SA); experiment: MIC, micro-dilution method; assay type: cell-based
# Method: as §3
# Methicillin-resistant SA = assay type: cell-based, Staphylococcus aureus
# Method: as §3
# DU145 cells = conditions: some 30 μg/ml
# Method: Investigations of 5a reductase inhibition were carried out on cells of the human prostate-cancer cell-line DU145. The cells (250,000) were disseminated in 5 ml of RPMI 1640 medium with 10% foetal calf serum (FCS) in 6-well cell-culture dishes and incubated at 37° C. in an incubator. After four days, the medium against RPMI 1640 was replaced, with the addition of 10% charcoal-stripped FCS. On the following day, the test substances and ^14C testosterone were applied and another 18 hours later, supernatant of the cells were removed. The supernatant of the cells were mixed with 2.5 ml ethyl acetate and then centrifuged for 10 mins with 500 g at room temperature. The organic phase was removed and transferred over to a small glass tube. Extraction was then repeated by again applying 2.5 ml ethyl acetate. The combined organic phases were evaporated down at 37° C. under N2 fumigation until dry; the residue was taken into 50 μl ethyl acetate and then separated out twice on a silica-gel 60 TLC dish, with ethyl acetate/cyclohexane (1:1) as mobile phase. The testosterone metabolites so formed were localised with the aid of a linear analyser, and inhibition of 5α reductase was obtained at the dihydro-testosterone peak by comparison with the solvent control.
# [8] = DU-145, 30 μg/ml, DU145 cells, 18 hours, read-out: Inhibition of 5α reductase
# [9] = DU-145, read-out: Inhibition of 5α reductase
Compound,MPO inhibition [1],Oedema inhibition [2],inhibition at 30 µg/mL (5α reductase; [8]),inhibition at 10 µg/mL ([3]; 10 μg/ml),also measured
O=c1cc(-c2ccc(O)c(-c3c(O)cc(O)c4c(=O)cc(-c5ccc(O)cc5)oc34)c2)oc2cc(O)cc(O)c12 [Amento-flavone],70%,82%,-15%,68%,
Camphor oil,96%,91%,,,"Inhibition of 5α reductase (5α reductase; 30 μg/ml, DU145 cells, 18 hours): 12%; Inhibition (proliferation of HaCaT cells) ([3]; 10 μg/ml): 44%"
C[C@@H]1O[C@@H](OC[C@H]2O[C@@H](Oc3c(-c4ccc(O)c(O)c4)oc4cc(O)cc(O)c4c3=O)[C@H](O)[C@@H](O)[C@@H]2O)[C@H](O)[C@H](O)[C@H]1O [Rutin],55%,38%,-6%,9%,
Oc1ccccc1O [Catechol],41%,36%,-15%,,inhibition at 10 µg/mL [3]: 14%
O=c1c(O)c(-c2ccc(O)c(O)c2)oc2cc(O)cc(O)c12 [Quercetin],97%,82%,46%,-29%,
C[C@@H]1O[C@@H](Oc2c(-c3ccc(O)c(O)c3)oc3cc(O)cc(O)c3c2=O)[C@H](O)[C@H](O)[C@H]1O [Quercitrin],23%,−26%,,,inhibition at 30 µg/mL (5α reductase; [9]): -29%; inhibition at 10 µg/mL [3]: 35%
Cc1cc(O)c2c(=O)c3c(O)cc(O)c4c5c(O)cc(O)c6c(=O)c7c(O)cc(C)c8c1c2c(c34)c(c78)c65 [Hypericin],48%,6%,,100%,TC50 (verocells): 74.3 µg/mL; inhibition at 30 µg/mL (5α reductase; [9]): -24%; IC50 [4]: 2.2 µg/mL; virus titre ([5]; 10 μg/ml): 4.7 × 10^6 TCID50; virus-deactivating action ([5]; 100 μg/ml): approx. 4 log10 stages; virus titre ([5]; 100 μg/ml): 4.7 × 10^3 TCID50
O=C(/C=C/c1ccc(O)c(O)c1)O[C@@H]1C[C@](O)(C(=O)O)C[C@@H](O)[C@H]1O [Chlorogenic acid],16%,14%,3%,-9%,
O=c1cc(-c2ccc(O)c(O)c2)oc2cc(O)cc(O)c12 [Luteolin],91%,70%,42%,92%,
Oc1cc(O)c2c(c1)O[C@H](c1ccc(O)c(O)c1)[C@H](O)C2 [Epicatechol],45%,1%,-6%,13%,
O=c1c(O[C@@H]2O[C@H](CO)[C@H](O)[C@H](O)[C@H]2O)c(-c2ccc(O)c(O)c2)oc2cc(O)cc(O)c12 [Hyperoside],39%,−27%,-1%,-8%,
CC(C)=CCC[C@]1(C)[C@@H](CC=C(C)C)C[C@@]2(CC=C(C)C)C(=O)[C@]1(C(=O)C(C)C)C(=O)C(CC=C(C)C)=C2O [Hyperforin],62%,65%,,,MIC (Enterococcus durans): 125 µg/mL; MIC [6]: 62.5 to 125 µg/mL; MIC (Enterococcus fæcium): 125 to 250 µg/mL; MIC (Streptococcus pyogenes): 15.6 µg/mL; MIC (Enterococcus fæcalis): 125 µg/mL; MIC (Listeria monocytogenes): 15.6 to 31.25 µg/mL; MIC [7]: 62.5 µg/mL; MIC (Methicillin-resistant SA): 31.25 µg/mL; cyto-toxicity (DU145 cells): cyto-toxic
O=c1c(O)c(-c2cc(O)c(O)c(O)c2)oc2cc(O)cc(O)c12 [Myricetin],75%,17%,29%,26%,
Hyperforin Na,,,,,"Inhibition of 5α reductase (5α reductase; 5 μg/ml, DU145 cells, 18 hours): 10%; Inhibition (proliferation of HaCaT cells) ([3]; 10 μg/ml): 97%"
O=c1c(O[C@@H]2O[C@H](CO)[C@@H](O)[C@H](O)[C@H]2O)c(-c2ccc(O)c(O)c2)oc2cc(O)cc(O)c12 [Isoquercitrin],73%,−29%,-5%,83%,
